Data from patent US11203582B2, “Benzamide derivatives for inhibiting endoplasmic reticulum (ER) stress” (The Board of Regents of the University of Oklahoma, priority 2017, dated 2021).

Columns and labels:
Assay type in all cases: cell-based, rat
INS-1 cells = assay: Live-cell phase-contrast imaging of Tm-treated INS-1 cells; set-up: dose or concentration left out as unconfirmed; settings: 48 h, FIG. 3B
Procedure: (A) INS-1 cells were treated with or without Tm (0.1 m/mL) in the presence of 13d at indicated concentrations or DMSO for 24 h. Cleaved caspase-3 and PARP were determined by Western blotting. α-Tubulin was used as a loading control. The data shown are representative of 3 independent experiments. (B) INS-1 cells were treated with or without Tm (0.1 m/mL) in the presence of 13d (0.111M) or DMSO for 48 h, and live-cell phase-contrast images were acquired (magnification 10×). The images shown are representative of 3 independent experiments. (C) TUNEL staining of INS-1 cells. INS-1 cells were treated with 0.111 g/mL of Tm with or without compound 13d for 24 h before TUNEL staining. DAPI was used as a nuclear marker. Magnification is 20×. The images shown are representative of 3 independent experiments. (D) Quantification of TUNEL staining from 20 fields of images. ** P<0.01 compared with Tm treatment alone.

cleaved PARP = assay: Western blotting of cleaved PARP in Tm-treated INS-1 cells; settings: Tm co-treatment, 24 h
Procedure: (§1) To determine whether the increase in β-cell viability following treatment with 13d is caused by a suppression of apoptotic cell death, several apoptosis-related makers were measured. First, levels of cleaved caspase-3 and cleaved PARP were assayed by Western blotting. Caspase-3, a member of executioner caspases activated by cleavage, plays essential roles in initiating apoptotic signaling and executing the final stages of cell death, whereas the nuclear enzyme poly (ADP-ribose) polymerase (PARP) plays an important role in a number of cellular processes involving DNA repair and cell death. […] However, upon severe ER stress, caspase 3 undergoes proteolytic cleavage to produce two subunits that dimerize to form the active enzyme, which in turns cleaves PARP. […] A further assessment of apoptotic INS-1 cell death was performed using TUNEL assays to detect nuclear DNA fragmentation (a consequence of cell apoptosis) in situ.
(§2) INS-1 cells were seeded in 60-mm dishes at 8×10^5 cells/dish and treated for the indicated times. Cells were then washed with PBS and lysed with lysis buffer (Cell Signaling Technology, Danvers, Mass.) containing EDTA (Thermo, Ill.) and phosphatase inhibitors (Thermo). Aliquots of 20 μg total protein were separated on 7% SDS-PAGE gels (Life Technologies) and transferred to PVDF membranes (Life Technologies). […]

MafA mRNA = assay: qRT-PCR of MafA mRNA in Tm-treated INS-1 cells; settings: Tm co-treatment, 24 h
Procedure: (§3) (A-D) INS-1 cells were treated with or without Tm (0.1 m/mL) in the presence of 13d at indicated concentrations or DMSO for 24 h. The mRNA levels of INS1 (A), INS2 (B), PDX1 (C), and MafA (D), were analyzed by qRT-PCR. Relative mRNA levels were normalized against the housekeeping gene Cyclophilin A using the comparative CT method. The results are the means of 3 replicate wells and are representative of 3 independent experiments. * P<0.05 and ** P<0.01 compared with Tm treatment alone. Bars indicate SD. (E) Insulin secretion by INS-1 cells incubated with 1.7 mM and 20 mM glucose in the presence or absence of Tm (0.1 μg/mL) and 13d. Secreted insulin was measured by ELISA after 24 h treatment. * P<0.05. The amount of insulin secreted in response to 1.7 mM glucose in the absence of Tm was set to 1.0 and was normalized with total protein concentration.
(§4) INS-1 cells were seeded at 4×10^5 cells/well in 6-well plates and treated with compounds for the indicated times. […] Relative mRNA levels were normalized against the housekeeping gene Cyclophilin A and were determined by ΔΔCt calculated from the difference in ΔCt values between the target gene and Cyclophilin A with and without treatment, based on comparative CT (cycle threshold) method. […]

cleaved caspase-3 = assay: Western blotting of cleaved caspase-3 in Tm-treated INS-1 cells; settings: Tm co-treatment, 24 h
Procedure: as §1, §2

INS1 mRNA = assay: qRT-PCR of INS1 mRNA in Tm-treated INS-1 cells; settings: Tm co-treatment, 24 h
Procedure: as §3, §4

## O=C(NCc1ccc(C(F)(F)F)cc1)c1cccc(CN2CCCCC2)c1 [Compound 13d, N-(4-trifluoromethylphenmethyl)-3-(N-piperidinyl)methyl benzamide]
INS-1 cells
  viable INS-1 cells with Tm co-treatment vs Tm alone: significantly more viable INS-1 cells
Cleaved PARP
  Tm-induced cleavage of PARP: completely or significantly diminished
MafA mRNA
  Tm-decreased MafA mRNA expression level: completely rescued
Cleaved caspase-3
  Tm-induced cleavage of caspase-3: completely or significantly diminished
INS1 mRNA
  Tm-suppressed INS1 mRNA level: completely rescued
